Drawing on PubChem BioAssay AID1259411 (Chemical Carcinogenesis Research Information System (CCRIS), 2018), this text covers carcinogen call for 11 molecules.

For this data set, the system named is rodent carcinogenicity bioassays, tumor incidence. The data set is described as follows: CCRIS carcinogenicity studies. In a few lines: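 NCI-built, expert-reviewed records of carcinogenicity and related test outcomes (mutagenicity, tumor promotion/inhibition) compiled from published and report sources, historical span 1985-2011, not updated.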

The structures appear in SMILES notation. The source made the active and inactive calls. How the calls were made is not given here.

On to `Cc1ccc2c(c1N)C(=O)c1ccccc1C2=O`, for which the carcinogen call is, setting by setting: (Species: MOUSE, Strain/Sex: B6C3F1/FEMALE, Route: ORAL, Dose: 0, 0.06% OF DIET (2 DOSAGE REGIMENS--A & B RECEIVING SAME CONC), TWA, Tumor Site: Type of Lesion: LIVER: HEPATOCELLULAR CARCINOMA, NEOPLASTIC NODULE) “active; positive”; (Species: MOUSE, Strain/Sex: B6C3F1/MALE, Route: ORAL, Dose: 0, 0.06% OF DIET (2 DOSAGE REGIMENS--A & B RECEIVING SAME CONC), TWA) “inactive; negative”; (Species: RAT, Strain/Sex: F344/FEMALE, Route: ORAL, Dose: 0, 0.10, 0.20% OF DIET, Dose: 0, 0.10, 0.20% OF DIET, Tumor Site: Type of Lesion: LIVER: HEPATOCELLULAR CARCINOMA, NEOPLASTIC NODULE) “active; positive”; (Species: RAT, Strain/Sex: F344/MALE, Route: ORAL, Dose: 0, 0.10, 0.20% OF DIET, Dose: 0, 0.10, 0.20% OF DIET, Tumor Site: Type of Lesion: LIVER: HEPATOCELLULAR CARCINOMA, NEOPLASTIC NODULE, KIDNEY: TUBULAR CELL ADENOMA, TUBULAR CELL ADENOCARCINOMA, ADENOCARC) “active; positive”.
Take `O=C(O)Nc1ccc(-c2ccccc2)cc1`: where the note is “Species: RAT, Strain/Sex: STRAIN-CD/FEMALE, Route: INTRAPERITONEAL, Dose: 0, 100 UMOL/KG BW 2/WK FOR 6 WK (STUDY DURATION: 62 WK)”, the carcinogen call is “inactive; negative”.
As to `O=[N+]([O-])c1ccc2ccc3c4ccccc4cc4ccc1c2c43`, the carcinogen call (Species: MOUSE, Strain/Sex: B6C3F1/MALE, Route: INTRAPERITONEAL, Dose: 0, 400 NMOL IN 35 µL DMSO ON DAYS 1 (1/7 TOTAL DOSE), 8 (2/7 TOTAL DOSE), AND 15 (4/7 TOTAL DOSE) AFTER BIRTH (STUDY DUR) was “inactive; negative” and the carcinogen call (Species: RAT, Strain/Sex: F344/MALE, Route: SUBCUTANEOUS, Dose: 0, 500, 1000 UG SUSPENDED IN BEESWAX/TRICAPRYLIN (1:1) ONCE (STUDY DURATION: LIFETIME), Dose: 0, 500, 1000 UG SUSPENDED IN BEESWAX/TRICAPRYLIN (1:1) ONCE (STUDY DURATION: LIFETIME)) was “inactive; negative”.
As for `FC(F)OC(Cl)C(F)(F)F` (centres undefined), the carcinogen call runs as follows: (Species: MOUSE, Strain/Sex: SWISS/FEMALE, Route: INHALATION, Dose: 0, 0.1, 0.4% IN AIR 4 HR/D 5 D/WK FOR 78 WK (STUDY DURATION: 81 WK), Dose: 0, 0.1, 0.4% IN AIR 4 HR/D 5 D/WK FOR 78 WK (STUDY DURATION: 81 WK)) “inactive; negative”; (Species: MOUSE, Strain/Sex: SWISS/MALE, Route: INHALATION, Dose: 0, 0.1, 0.4% IN AIR 4 HR/D 5 D/WK FOR 78 WK (STUDY DURATION: 81 WK), Dose: 0, 0.1, 0.4% IN AIR 4 HR/D 5 D/WK FOR 78 WK (STUDY DURATION: 81 WK)) “inactive; negative”.
With `N#CS`, the carcinogen call was “inactive; negative” (Species: RAT, Strain/Sex: F344/FEMALE, Route: ORAL, Dose: 0, 0.32% IN DRINKING WATER 5 D/WK FOR 112 WK (STUDY DURATION: 130 WK)) and “inactive; negative” (Species: RAT, Strain/Sex: F344/MALE, Route: ORAL, Dose: 0, 0.32% IN DRINKING WATER 5 D/WK FOR 112 WK (STUDY DURATION: 130 WK)).
Regarding `N[C@@H](Cc1ccc(N(CCCl)CCCl)cc1)C(=O)O`, the carcinogen call by setting is: (Species: HUMAN, Route: ORAL, Tumor Site: Type of Lesion: HEMATOPOIETIC SYSTEM (LEUKEMIA), LYMPHATIC SYSTEM: LYMPHOMA) “active; positive”; (Species: MOUSE, Strain/Sex: STRAIN-A/MALE,FEMALE, Route: INTRAPERITONEAL, Dose: 0.27, 1.07, 4.27, 17.1 MG/KG IN 12 DOSES OVER 4 WK, Dose: 0.27, 1.07, 4.27, 17.1 MG/KG IN 12 DOSES OVER 4 WK, Tumor Site: Type of Lesion: LUNG: ADENOMA) “active; positive”; (Species: MOUSE, Strain/Sex: SWISS/FEMALE, Route: INTRAPERITONEAL, Dose: 0.75, 1.5 MG/KG 3/WK FOR 6 MO, Tumor Site: Type of Lesion: LUNG: ADENOMA) “active; positive”; (Species: MOUSE, Strain/Sex: SWISS/MALE, Route: INTRAPERITONEAL, Dose: 0.75, 1.5 MG/KG 3/WK FOR 6 MO, Tumor Site: Type of Lesion: LUNG: ADENOMA, LYMPHATIC SYSTEM: LYMPHOSARCOMA) “active; positive”; (Species: RAT, Strain/Sex: STRAIN-CD/MALE,FEMALE, Route: INTRAPERITONEAL, Dose: 0.9, 1.8 MG/KG 3/WK FOR 6 MO, Tumor Site: Type of Lesion: PERITONEAL CAVITY: SARCOMA) “active; positive”.
For `O=C1CCc2c1cc1c3c2ccc2cccc(c23)C1`, the carcinogen call (Species: MOUSE, Strain/Sex: T.O./MALE, FEMALE, Route: DERMAL, Dose: 0, 50 UG IN TOLUENE SOLUTION 2 D/WK FOR 39 OR 50 WK (STUDY DURATION: 2 YR), Tumor Site: Type of Lesion: SKIN: PAPILLOMA OR CARCINOMA) is “active; positive”.
For `CN(C)CCN(Cc1cccs1)c1ccccn1`, the carcinogen call is “inactive; negative” (Species: RAT, Strain/Sex: F344/FEMALE, Route: ORAL, Dose: 0, 1 G/L IN DEIONIZED DRINKING WATER FOR 12 WK WITH NO TREATMENT DURING WK 5 AND 9 (STUDY DURATION: 121 WK)); “active; positive” (Species: RAT, Strain/Sex: F344/FEMALE, Route: ORAL, Dose: 0, 125, 250 MG/KG IN DIET (TOTAL DOSE: 0; 7; 15 MG/KG) FOR 110 WK (STUDY DURATION: 133 WK), Dose: 0, 125, 250 MG/KG IN DIET (TOTAL DOSE: 0; 7; 15 MG/KG) FOR 110 WK (STUDY DURATION: 133 WK), Tumor Site: Type of Lesion: LIVER: CARCINOMA); “active; positive” (Species: RAT, Strain/Sex: F344/MALE,FEMALE, Route: ORAL, Dose: 1000 PPM IN DIET FOR 64 WK (INITIAL DOSES AT 2000 PPM), Tumor Site: Type of Lesion: LIVER: HEPATOCELLULAR CARCINOMA, CHOLANGIOCARCINOMA); “active; positive” (Species: RAT, Strain/Sex: F344/MALE, Route: ORAL, Dose: 0, 125, 250 MG/KG IN DIET (TOTAL DOSE: 0; 7; 14 G/KG) FOR 110 WK (STUDY DURATION: 133 WK), Dose: 0, 125, 250 MG/KG IN DIET (TOTAL DOSE: 0; 7; 14 G/KG) FOR 110 WK (STUDY DURATION: 133 WK), Tumor Site: Type of Lesion: LIVER: CARCINOMA); “active; positive” (Species: RAT, Strain/Sex: SPRAGUE-DAWLEY/FEMALE, Route: ORAL, Dose: 0, 500, 1000 PPM IN DRINKING WATER 5D/WK FOR LIFE (STUDY DURATION: 576-709 D), Dose: 0, 500, 1000 PPM IN DRINKING WATER 5D/WK FOR LIFE (STUDY DURATION: 576-709 D), Tumor Site: Type of Lesion: LIVER: HEPATOCELLULAR CARCINOMA OR SARCOMA); “active; positive” (Species: RAT, Strain/Sex: SPRAGUE-DAWLEY/MALE, Route: ORAL, Dose: 0, 500, 1000 PPM IN DRINKING WATER 5D/WK FOR LIFE (STUDY DURATION: 585-760 D), Dose: 0, 500, 1000 PPM IN DRINKING WATER 5D/WK FOR LIFE (STUDY DURATION: 585-760 D), Tumor Site: Type of Lesion: LIVER: HEPATOCELLULAR CARCINOMA).
Consider `c1ccc2c(c1)ccc1cc3ccc4c(c3cc12)CCCC4`, for which, for the setting “Species: MOUSE, Strain/Sex: SWISS/FEMALE, Route: DERMAL, Dose: 0, 37 UG IN ACETONE (0.2%) 2/WK FOR 70 WK FOR A TOTAL DOSE OF 0, 5.2 MG (STUDY DURATION: 100 WK), Dose: 0, 37 UG IN ACETONE (0.2%) 2/WK FOR 70 WK FOR A TOTAL DOSE OF 0, 5.2 MG (STUDY DURATION: 100 WK), Tumor Site: Type of Lesion: SKIN: CARCINOMA, SKIN: PAPILLOMA”, the carcinogen call was “active; positive”.
Turning to `OC[C@H]1O[C@H](O[C@]2(CCl)O[C@H](CCl)[C@@H](O)[C@@H]2O)[C@H](O)[C@@H](O)[C@H]1Cl`, the carcinogen call runs as follows: (Species: MOUSE, Strain/Sex: CD-1/FEMALE, Route: ORAL, Dose: 0, 3000, 10,000, 30,000 PPM IN DIET FOR 104 WK (STUDY DURATION: 104 WK), Dose: 0, 3000, 10,000, 30,000 PPM IN DIET FOR 104 WK (STUDY DURATION: 104 WK)) “inactive; negative”; (Species: MOUSE, Strain/Sex: CD-1/MALE, Route: ORAL, Dose: 0, 3000, 10,000, 30,000 PPM IN DIET FOR 104 WK (STUDY DURATION: 104 WK), Dose: 0, 3000, 10,000, 30,000 PPM IN DIET FOR 104 WK (STUDY DURATION: 104 WK)) “inactive; negative”; (Species: RAT, Strain/Sex: SPRAGUE-DAWLEY/FEMALE, Route: ORAL, Dose: 0, 0.3, 1.0, 3.0% IN DIET FOR 104 WK (STUDY DURATION: 104 WK), Dose: 0, 0.3, 1.0, 3.0% IN DIET FOR 104 WK (STUDY DURATION: 104 WK)) “inactive; negative”; (Species: RAT, Strain/Sex: SPRAGUE-DAWLEY/MALE, Route: ORAL, Dose: 0, 0.3, 1.0, 3.0% IN DIET FOR 104 WK (STUDY DURATION: 104 WK), Dose: 0, 0.3, 1.0, 3.0% IN DIET FOR 104 WK (STUDY DURATION: 104 WK)) “inactive; negative”.
Turning to `C#C[C@]1(O)CC[C@H]2[C@@H]3CCc4cc(O)ccc4[C@H]3[C@@H](OC)C[C@@]21C`, the carcinogen call (Species: HAMSTER, Strain/Sex: SYRIAN/MALE, Route: SUBCUTANEOUS IMPLANT, Dose: 0, 20 MG IN PELLETS IMPLANTED EVERY 2.5 MO FOR 9 MO (STUDY DURATION: 9 MO), Tumor Site: Type of Lesion: KIDNEY: TUMOR) is “active; positive”.
